# Experimental data: the supplement of paper PMC10307832
# Assays:
# Assay in all cases: relative viability (nuclei count vs DMSO), 5 days (fraction); higher = more cells survive
# [1] = compound: CCOC(=O)CCNc1cc(N2CCc3ccccc3CC2)nc(-c2ccccn2)n1 [GSK-J4] + Cc1cc(Nc2cc(N3CCN(C)CC3)nc(Sc3ccc(NC(=O)C4CC4)cc3)n2)n[nH]1 [Tozasertib] (partner 0.1 µM)
# How it was run: (§1)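 A single step with final 0.05% Triton X-100, 1% formaldehyde and 1 ug/ml Hoechst fixed the cells and stained nuclei 5 days after treatment. Lung cancer cell lines in 1536-well plates had been treated by pin tool the day after seeding with one drug alone or a fixed anchor-drug dose plus five library-drug doses (not always all listed) in √10 steps, and nuclei were counted on 4× images. Relative viability is the ratio of nuclei in treated wells to nuclei in vehicle wells, taken as the median of duplicate plates.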
# [2] = compound: CCOC(=O)CCNc1cc(N2CCc3ccccc3CC2)nc(-c2ccccn2)n1 [GSK-J4] + CS(=O)(=O)N1CCN(Cc2cc3nc(-c4cccc5[nH]ncc45)nc(N4CCOCC4)c3s2)CC1 [Pictilisib] (partner 1 µM)
# How it was run: as §1
# [3] = compound: CCOC(=O)CCNc1cc(N2CCc3ccccc3CC2)nc(-c2ccccn2)n1 [GSK-J4] + C[C@]1(O)C[C@@H](c2nc(-c3ccc4ccc(-c5ccccc5)nc4c3)c3c(N)nccn32)C1 [Linsitinib] (partner 1 µM)
# How it was run: as §1
# [4] = compound: CCOC(=O)CCNc1cc(N2CCc3ccccc3CC2)nc(-c2ccccn2)n1 [GSK-J4] + COc1cccc2cc(-c3nc([C@H]4CC[C@H](C(=O)O)CC4)n4ncnc(N)c34)[nH]c12 [OSI-027] (partner 0.5 µM)
# How it was run: as §1
Cell Line,relative viability ([1]; first compound 0.5 µM),relative viability ([1]; first compound 1.581 µM),relative viability ([1]; first compound 5 µM),relative viability ([1]; first compound 15.81 µM),relative viability ([1]; first compound 50 µM),relative viability ([2]; first compound 0.5 µM),relative viability ([2]; first compound 5 µM),relative viability ([2]; first compound 15.81 µM),relative viability ([2]; first compound 50 µM),relative viability ([3]; first compound 0.5 µM),relative viability ([3]; first compound 5 µM),relative viability ([3]; first compound 15.81 µM),relative viability ([3]; first compound 50 µM),relative viability ([4]; first compound 0.5 µM),relative viability ([4]; first compound 1.581 µM),relative viability ([4]; first compound 5 µM),relative viability ([4]; first compound 15.81 µM),relative viability ([4]; first compound 50 µM),relative viability ([2]; first compound 1.581 µM),relative viability ([3]; first compound 1.581 µM)
NCI-H23,0.333,0.397,0.373,0.281,0.249,0.535,0.545,0.49,0.319,0.557,0.694,0.54,0.594,0.657,0.363,0.535,0.41,0.392,–,–
NCI-H322M,0.457,0.393,0.484,0.442,0.507,0.544,0.7,0.538,0.465,0.858,0.955,0.828,0.825,0.556,0.506,0.637,0.504,0.49,0.574,0.929
NCI-H358,0.087,0.0898,0.0969,0.113,0.129,0.459,0.377,0.407,0.268,0.682,0.746,0.717,0.857,0.765,0.68,0.795,0.504,0.617,0.304,0.513
NCI-H441,0.595,0.634,0.526,0.559,0.494,0.427,0.571,0.506,0.403,0.664,0.602,0.532,0.511,0.673,0.472,0.567,0.536,0.433,0.458,0.325
NCI-H460,0.41,0.387,0.344,0.294,0.283,0.43,0.519,0.343,0.217,0.821,0.836,0.691,0.581,0.586,0.494,0.537,0.508,0.522,0.457,0.584
NCI-H520,0.439,–,0.497,0.39,0.425,0.269,0.303,0.275,0.414,0.829,1.15,0.891,0.81,0.33,0.22,0.278,0.248,0.257,0.236,0.939
NCI-H596,0.953,0.891,0.971,0.847,0.691,0.417,0.365,0.431,0.369,1,1.07,0.938,1.02,0.72,0.767,0.857,0.464,0.597,0.428,1.08
NCI-H647,0.315,0.192,0.178,0.28,0.155,0.576,0.272,0.426,0.353,0.964,1.03,1.2,0.79,0.674,0.513,0.391,0.594,0.774,0.479,0.993
NCI-H650,0.677,0.727,0.432,0.526,0.459,0.839,0.789,0.779,0.468,0.733,0.537,0.723,0.592,0.508,0.447,0.356,0.427,0.294,0.798,0.672
NCI-H661,0.355,0.3,0.357,0.335,0.413,0.484,0.331,0.339,0.342,0.549,0.608,0.425,0.36,0.694,0.645,0.559,0.542,0.435,0.463,0.565
NCI-H727,0.714,0.541,0.621,0.585,0.463,0.379,0.691,0.427,0.18,0.245,0.568,0.267,0.222,0.745,0.383,0.842,0.55,0.322,–,–
NCI-H838,0.299,0.26,–,0.26,0.21,0.624,–,0.467,0.433,0.973,–,0.999,1,0.452,0.353,–,0.362,0.385,0.407,0.982
NCI-H1355,0.517,0.517,0.575,0.439,0.437,0.521,0.397,0.418,0.478,0.714,0.871,0.809,0.816,0.438,0.316,0.35,0.29,0.278,0.302,0.742
NCI-H1395,0.806,0.864,0.728,0.687,0.614,0.578,0.544,0.573,0.518,1.06,0.877,0.813,0.745,0.65,0.641,0.515,0.591,0.569,0.524,1.22
NCI-H1437,0.391,0.372,0.384,0.377,0.293,0.454,0.385,0.435,0.165,0.928,0.988,0.881,0.222,0.899,0.761,0.806,0.882,0.648,0.352,0.993
NCI-H1651,0.674,0.623,0.807,0.569,0.567,0.578,0.668,0.639,0.389,0.959,1.05,0.9,0.939,0.79,0.734,0.687,0.706,0.721,0.416,0.878
